In patent publication US20240277711A1, “COMPOUNDS FOR THE TREATMENT OF GLIOBLASTOMA” (Merck Patent GmbH, priority 2021, published 2024):

Experiments:
[1] = tested on: mouse glioma cell lines; assay: Acute growth inhibition assay (MTT) in mouse glioma cell lines; type: cell-based; details: concentrations up to 1 μM
[2] = tested on: mouse glioma cell lines; assay: Clonogenic survival (clonogenicity) assay in mouse glioma cell lines; type: cell-based; details: concentrations up to 1 μM
[3] = tested on: glioma cells; assay: Sensitization to irradiation in vitro (clonogenic survival); type: cell-based, mouse
[4] = tested on: murine glioma cell invasiveness; assay: Murine glioma cell invasiveness in vitro without or with irradiation; type: cell-based, mouse; details: without or with irradiation (2 Gy, 8 Gy)
Excerpt: Next, we evaluated the motogenic activity of HGF/MET in response to irradiation in vitro. Low-dose irradiation (2 Gy) increased invasiveness in SMA-540 and SMA-560 cells whereas high-dose irradiation (8 Gy) reduced invasiveness in SMA-497 and SMA-560 cells.

[5] = tested on: SMA-560 gliomas; assay: Orthotopic syngeneic SMA-560 glioma model in vivo (survival, histology); set-up: species or system mouse
Method: B. Kaplan-Meier survival curve. C. […] Sections were counterstained with hematoxylin (blue).
Sections (8 μm thick) of tumor-bearing cryopreserved brains were prepared. The mean tumor size was determined by the largest tumor area in the horizontal plane on hematoxylin and eosin (H&E)-stained sections by multiplying the longest perpendicular diameters from a low-magnification (2.5×) image. Brain sections were immunostained with Ki-67 antibody (clone SP6, Epitomics, Burlingame, CA), anti-mouse CD31 antibody (clone MEC 13.3, BD Pharmingen, Franklin Lakes, NJ), anti-CD45 antibody (clone 30-F11; BioLegend), anti-CD3 (clone 17A2; BD Biosciences, San Jose, CA) or anti-CD11b (clone M1/70; BD Biosciences) and histofine simple stain mouse max pro anti-rabbit secondary antibody (Nichirei Biosciences, Tokyo, Japan) to determine proliferation. Anti-rat N-Histofine Simple Stain Mouse MAX PO (Nichirei Biosciences) and DAB chromogen were used to stain blood vessels. The percentage of Ki-67-positive tumor nuclei and the mean number of CD31-positive intratumoral vessels per high power field (×40 objective) were calculated using three randomly selected different microscopic fields of each section for three 3 mice per group. Alternatively, DAB-positive signals were quantified using the ImageJ software (https://imagej.nih.gov/) (Crowe and Yue, 2019).
(§1) All in vitro and in vivo experiments reported here were performed in biological replicates, i.e., in independent experiments and with different passage numbers of cell lines. Statistical significance was assessed by two-sided unpaired t-test or two-way ANOVA with Bonferroni post-testing (GraphPad Prism). Tumor size was analyzed using the Mann-Whitney U non-parametric test. Survival was analyzed using a Kaplan-Meier survival plot followed by a log-rank (Mantel-Cox) test. Differences were considered statistically significant when the p value was below 0.05.

[6] = tested on: mouse cytokines; assay: Proteome profiler cytokine array of SMA-560 tumor lysates ex vivo; type: in vivo
Method: In A, raw data are expressed as pixel density measured by Image J. In B, fold-changes indicate down-regulation (left) or up-regulation (right) versus control tumors. A difference down or up of 2-fold versus control was used as cut-off to assign a target to any group.
For the simultaneous determination of relative levels of mouse cytokines in vivo, the Mouse XL Cytokine Array Kit from R&D Systems was used (ARY028, Minneapolis, MN). Tissue lysates were prepared by electric homogenizer in ice-cold lysis buffer and supplemented with protease inhibitor cocktail, followed by centrifugation to remove cellular debris; 150 μg protein was used for each tumor sample and nitrocellulose membrane (control, monotherapies, combination therapy). To compare the proportion of protein levels in each tumor specimen, the quantification of pixel density of each spot of the array was performed using Image J (version 1.32j) software (National Institutes of Health, Bethesda, MD, http://rsb.info.nih.gov/ij/).

[7] = tested on: GL-261 glioma; assay: Orthotopic syngeneic GL-261 glioma model in wildtype mice; type: in vivo, mouse
Method: (§2) Kaplan-Meier survival curves are shown. B, C. […] B. Kaplan-Meier survival curves were analyzed via log-rank test. C. Mice surviving in (B) were re-challenged after 13 weeks after initial tumor cell injection with GL-261 cell implantation into the contralateral hemisphere. Naïve mice implanted with GL-261 cells were used as controls. Kaplan-Meier survival curves are shown. D, E. GL-261 met knock-out cells were intracranially implanted into wildtype C57/B16 mice (D) or GL-261 wildtype cells were intracranially implanted into C57/B16 Rag1−/− mice (E). […] F. Analysis of median survival between treatment groups.
as §1

[8] = tested on: SMA-560 gliomas; assay: SMA-560 glioma in immunodeficient Rag1−/− mice; type: in vivo, mouse; details: tepotinib 100 mg/kg daily + 10 Gy
[9] = tested on: GL-261 glioma; assay: GL-261 glioma in Rag1−/− mice; type: in vivo, mouse; details: tepotinib + 10 Gy
Method: as §2, §1

[10] = tested on: GL-261 met knock-out cells; assay: GL-261 met knock-out glioma in wildtype mice; type: in vivo, mouse; details: MET disrupted in tumor, tepotinib + 10 Gy
Method: as §2
Knockout clones were generated as described (Ran et al., 2013; Machado et al., 2019). Briefly, two MET-specific guide RNAs (5′-[…]-3′ and 5′-[…]-3′) were cloned into pSpCas9(BB)-2A-GFP and lipofectamine (Thermo) was used to co-transfect both plasmids. […]
as §1, with “Differences were considered statistically significant when the p value was below 0.05.” left out

[11] = tested on: ligand-independent Hs746T tumors; details: before tumor became resistant and progressed; cited from earlier work
[12] = tested on: HGF-dependent U87MG tumors; details: before tumor became resistant and progressed; cited from earlier work
[13] = tested on: glioblastoma; details: in vivo; cited from earlier work
[14] = combination group (tepotinib + radiotherapy)

## CN1CCC(COc2cnc(-c3cccc(Cn4nc(-c5cccc(C#N)c5)ccc4=O)c3)nc2)CC1 [tepotinib, 3-(1-{3-[5-(1-methyl-piperidin-4-ylmethoxy)-pyrimidin-2-yl]-benzyl}-6-oxo-1,6-dihydro-pyridazin-3-yl)-benzonitrile]
[1]
  acute growth inhibition: resistant to inhibitory effects of tepotinib
[2]
  clonogenicity: resistant to inhibitory effects of tepotinib
[3]; concentrations known to inhibit MET phosphorylation (100 nM)
  sensitization to inhibitory effects of irradiation in vitro: failed to sensitize glioma cells to the inhibitory effects of irradiation
[3]; with exogenous HGF (50 ng/ml)
  sensitization to irradiation in presence of exogenous HGF: no sensitization to irradiation by tepotinib became apparent
[4]
  invasiveness: suppressed invasiveness in all cell lines without or with irradiation, except in low dose-irradiated SMA-540 cells
[5]; combination arm (tepotinib + radiotherapy)
  reduction in CD31 immunoreactivity: 2.8 fold
[5]; [14]
  Ki-67-positive cells: strong decrease of Ki-67-positive cells
  mice alive and free from tumor at day 80: three
[5]; combination with radiotherapy (single dose 12 Gy)
  survival: around 60 days
[5]; monotherapy
  survival: around 20 days
[5]; monotherapy arm
  reduction in CD31 immunoreactivity: 1.8 fold
[5]; monotherapy group
  percentage of Ki-67-stained nuclei: remained unaffected
[5]; tepotinib alone, 100 mg/kg daily
  effect on survival: Neither tepotinib alone nor radiotherapy alone had a significant effect on survival
[5]; tepotinib group
  mice alive and free from tumor at day 80: one
[6]; combination with irradiation
  irradiation-induced cytokines (VEGF, ICAM-1, MMP-2/-9, IL-1a, CXCL10 etc.): an induction upon irradiation that was attenuated by tepotinib
[6]; tepotinib monotherapy
  cytokine levels in tumor tissue lysates: reduced the levels of some cytokines
[7]; co-treatment group
  long-term survivors: approximately 50%
[7]; combination therapy (tepotinib + 10 Gy), wildtype mice
  survival: prominent survival prolongation
[7]; rechallenge at 90 days, followed another 50 days
  outcome of rechallenge of long-term survivors with GL-261 cells: all 4 animals remained asymptomatic
[8]
  synergistic effect of combination therapy on survival: strongly attenuated
[9]
  synergy of irradiation with tepotinib: synergy with tepotinib was lost
[10]
  synergy of irradiation with tepotinib: synergy was also lost
[11]
  tumor growth inhibition and regression: Tumor growth inhibition and regression of tumors by tepotinib was temporarily observed
[12]
  tumor growth inhibition and regression: Tumor growth inhibition and regression of tumors by tepotinib was temporarily observed

## AMG-102: HGF antibody
[13]
  efficacy outcome in glioblastoma: negative outcomes

## onartuzumab: MET antibody
[13]
  efficacy outcome in glioblastoma: negative outcomes
